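96-well plates; 48 h exposure; 5 concentrations. Endpoints by linear interpolation between flanking doses. Not reached: highest tested concentration assigned. GI50 = concentration required for 50% inhibition of growth.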 The source made the active and inactive calls. Rule as the data show it: active = GI50 up to about 1.1 µM and inactive = higher. Where only a bound is given, the exact number is not on record here.

Holding throughout (assay): growth of human tumour cells (NCI), 48 h
In assay [1] the test system is 786-0.
For assay [2], the system named is A498.
Assay [3] has as its system ACHN.
For assay [4], the system named is HOP-92.
In assay [5] the test system is LOX IMVI.
Assay [6] deals with M14.
In assay [7] the test system is MDA-MB-231.
Assay [8] deals with NCI-H226.
Assay [9] has as its system NCI-H23.
In assay [10] the test system is NCI-H460.
For assay [11], the system named is OVCAR-5.
The test system of assay [12] is RXF 393.
Assay [13] has as its system SF-268.
In assay [14] the test system is SW-620.
The test system of assay [15] is U-251.
Assay [16] concerns UACC-257.
Assay [17] concerns NCI-H522.
Assay [18] has as its system OVCAR-8.
Assay [19] deals with IGROV-1.
The test system of assay [20] is SNB-75.

As for `CNC(=S)N/N=C1\C(=O)N(CN2CCOCC2)c2ccc([N+](=O)[O-])cc21`, the GI50 was 15.3 µM (inactive) in assay [1]; 24.5 µM (inactive) in [2]; 17.5 µM (inactive) in [3]; 21.3 µM (inactive) in assay [4]; 17.4 µM (inactive) in [5]; 31.6 µM (inactive) in [6]. For the same molecule, the GI50 in assay [7] was 11.9 µM (inactive); in assay [8], 15.8 µM (inactive); in assay [9] it was 17.7 µM (inactive); in assay [10], 23.4 µM (inactive); in assay [11], 22.8 µM (inactive); in assay [12], 16.4 µM (inactive). The GI50 is 20.2 µM (inactive) in [13], 28.2 µM (inactive) in assay [14], 14.7 µM (inactive) in [15] and 25.4 µM (inactive) in assay [16].

Take `Cc1n[nH]c(C(F)(F)F)c1/N=N/N(C)C`: the GI50 in assay [1] was 1.24 µM (inactive); in assay [2], > 100 µM (inactive); in assay [3], 4.72 µM (inactive); in assay [4], 8.32 µM (inactive); in [5], 1.47 µM (inactive); in assay [6], 14.7 µM (inactive). The GI50 in assay [7] is 11.8 µM (inactive); in assay [8], 1.95 µM (inactive); in assay [9] it was 5.73 µM (inactive); in assay [10], 10.5 µM (inactive); in assay [17], 1.37 µM (inactive); in [18], 11.1 µM (inactive). Further, the GI50 was 13 µM (inactive) in assay [12]; 11.4 µM (inactive) in [13]; > 100 µM (inactive) in [14]; 11 µM (inactive) in [15]; 14.7 µM (inactive) in assay [16].

For `[N-]=[N+]=CC(=O)OCCCCl`, the GI50 in assay [1], in assay [2], in assay [3], in assay [4], in [19] and in assay [5] was > 100 µM (inactive) throughout. For the same molecule, the GI50 in [7] is > 100 µM (inactive); in assay [8], > 100 µM (inactive); in assay [9], > 100 µM (inactive); in [10], 4.37 µM (inactive); in [17], > 100 µM (inactive); in assay [11], > 100 µM (inactive). The GI50 in assay [12], in [13], in assay [14], in [15] and in [16] was > 100 µM (inactive) throughout.

With `C=CC(=O)N1C/C(=C\c2ccc([N+](=O)[O-])cc2)C(=O)/C(=C/c2ccc([N+](=O)[O-])cc2)C1`, the GI50 in [1] is < 0.0203 µM (active); in [2], 0.28 µM (active); in [3], 0.16 µM (active); in [4], 0.811 µM (active); in assay [19], 0.0728 µM (active); in assay [5], < 0.0179 µM (active). Further, the GI50 is 0.19 µM (active) in [6]; 0.161 µM (active) in assay [7]; 0.2 µM (active) in [8]; 0.256 µM (active) in [9]; 0.147 µM (active) in assay [10]; 0.29 µM (active) in [11]. The GI50 in assay [18] was < 0.0391 µM (active); in assay [12] it was 0.142 µM (active); in [13], < 0.0403 µM (active); in assay [14] it was 0.0304 µM (active); in assay [15], 0.0697 µM (active); in [16], 0.794 µM (active).

On to `Cc1cccc(/C=N/NC(=S)N(C)CCc2ccccn2)n1`, for which the GI50 in assay [1] was 0.281 µM (active); in assay [2] it was 0.285 µM (active); in assay [3], 0.191 µM (active); in assay [4], 0.38 µM (active); in assay [19], 0.366 µM (active); in [5] it was 0.207 µM (active). Besides, the GI50 in assay [6] is 0.329 µM (active); in [7], 1.16 µM (inactive); in assay [8] it was 0.39 µM (active); in [9], 0.467 µM (active); in [10], 0.267 µM (active); in assay [17] it was 0.214 µM (active). Moreover, the GI50 in [11] is 4.93 µM (inactive); in assay [18], 0.336 µM (active); in assay [13], 0.278 µM (active); in assay [20], 0.483 µM (active); in assay [14] it was 0.361 µM (active); in assay [15] it was 0.347 µM (active). The GI50 in [16] was 0.448 µM (active).

For `CSC1NC(c2ccc(Cl)cc2)=C(C#N)C(=O)N1C1OCC(OC(C)=O)C(OC(C)=O)C1OC(C)=O` (stereo not given), the GI50 in [1] was > 100 µM (inactive); in assay [2], 34.8 µM (inactive); in assay [3], > 100 µM (inactive); in assay [4] it was > 100 µM (inactive); in assay [19] it was > 100 µM (inactive); in assay [5], > 100 µM (inactive). Moreover, the GI50 in assay [6], in assay [7], in assay [8], in assay [9], in assay [10] and in assay [17] was > 100 µM (inactive) each time. Further, the GI50 in [11], in [18], in [13], in [20], in [14] and in assay [15] was > 100 µM (inactive) in each case. For the same molecule, the GI50 in [16] was > 100 µM (inactive).

Consider `COC(=O)c1c(O)ccc2c1c1c(n2Cc2ccccn2)C(=O)c2ccccc2C1=O`, for which the GI50 in [1] was 30.9 µM (inactive); in [2], > 100 µM (inactive); in assay [3], 18.5 µM (inactive); in assay [4], 26.5 µM (inactive); in assay [19], 26.4 µM (inactive); in assay [6], > 100 µM (inactive). Also, the GI50 was > 100 µM (inactive) in assay [7]; 70.1 µM (inactive) in [8]; 57.1 µM (inactive) in assay [9]; 40.3 µM (inactive) in assay [10]; 15.8 µM (inactive) in assay [17]; 56.8 µM (inactive) in [11]. In addition, the GI50 in [18] is 50.4 µM (inactive); in assay [12], 52.5 µM (inactive); in assay [13], 35.9 µM (inactive); in assay [15] it was 35.7 µM (inactive); in assay [16] it was > 100 µM (inactive).

On to `N=C(c1ccc2ccccc2c1)c1ccccc1Cc1ccccc1`, for which the GI50 is 54.6 µM (inactive) in assay [1]; 82.8 µM (inactive) in assay [2]; 45.5 µM (inactive) in [3]; 27.9 µM (inactive) in assay [4]; 35.9 µM (inactive) in assay [19]; 45.6 µM (inactive) in [5]. Further, the GI50 in [6] is 58.1 µM (inactive); in assay [7], > 100 µM (inactive); in assay [8], 28 µM (inactive); in assay [9], 41.7 µM (inactive); in assay [10], 33.6 µM (inactive); in assay [11], 36.8 µM (inactive). Also, the GI50 is 44 µM (inactive) in assay [18]; 5.97 µM (inactive) in assay [12]; 37.8 µM (inactive) in assay [14]; 35.9 µM (inactive) in assay [15]; 52.6 µM (inactive) in assay [16].

The record behind these values is ChEMBL document CHEMBL1201862, “PubChem BioAssay data set” (2004).
